According to patent US20110206720A1, “ANTI-INFLAMMATORY USAGE OF ANTRODIA CINNAMOMEA FRUIT BODY DERIVATIVES” (Taiwan Leader Biotech Corp, priority 2010, published 2011):

Assays:
Assay type in all cases: cell-based, mice
macrophage RAW 267.4 [1] = assay: LPS-elicited NO production in macrophage RAW 267.4, nitrite by Griess reaction; design: unit not given here; conditions: then LPS 1 g/ml 24 hours
Method: (§1) The invention chooses the macrophage RAW 267.4 of mice for the discussion about the production of NO and prostaglandin-E2 (PGE2). For the culture of RAW 267.4 cell, firstly inoculate RAW 267.4 macrophages growing in the culture plate (75 cm^2) in 96-well plate in the density of 2×10^5 cells/well and then culture them in the incubator (37° C., 5% CO2). DMEM culture medium is selected according to the recommendation of ATCC (American TypeCulture Collection), with 10% fetal bovine serum (FBS), penicillin (100 units/ml) and streptomycin ([…]) added.
Firstly, RAW 267.4 is cultured as detailed in Experiment I and divided into three groups: group 1 (ACE), group 2 (ACE-EA) and group 3 (ACE-water). For each group, add said ACE, ACE-EA and ACE-water of different concentrations (1, 10, 25, 50 g/ml) in the culture medium, add LPS to elicit RAW267.4 producing NO, and measure the content of nitrite after 24 hours by Griess reaction to indirectly measure the amount of NO.
NO activity inhibition tests are conducted on RAW 267.4 macrophages (see reference in Cell culture, Experiment I) to 17 fractions respectively. Firstly, divide RAW 267.4 cells into 17 groups, add 17 fractions (50 g/ml) in the culture medium, and then add LPS (1 g/ml) to elicit the production of NO. 24 hours later, Griess reaction is conducted to measure the content of nitrites and thus indirectly measuring the production of NO and calculating the inhibition rate of NO.
In the experiment of production of NO, firstly RAW 267.4 cells are cultured as Experiment I states, handled for 1 hour in antrocamphin A (1, 5, 10, 20 g/ml) or curcumin (10 g/ml), and then processed for 24 hours with LPS (1 g/ml). Then, Griess reaction is conducted to measure the content of nitrites and thus indirectly obtaining the production of NO.

macrophage RAW 267.4 [2] = assay: LPS-elicited prostaglandin-E2 (PGE2) production in macrophage RAW 267.4, ELISA; design: unit not given here; conditions: RAW 267.4, aspirin 3 hours, then LPS 1 g/ml 16 hours
Method: as §1
In the experiment for measuring the production of prostaglandin-E2 (PGE2), firstly RAW 267.4 cells are cultured as Experiment I states and […] aspirin is added in the culture medium for 3 hours so that the endogenous COX-1 is deactivated. Then, they are handled for 1 hour in antrocamphin A (1, 5, 10, 20 g/ml) or curcumin (10 g/ml) and processed for 16 hours with LPS (1 g/ml). Finally, supernatant liquid in the cell culture is measured by ELISA kit (Cayman Chemicals) so as to get the production of prostaglandin-E2 (PGE2) in endogenous arachidonic acid.

macrophage RAW 267.4 [3] = assay: MTT test of toxicity to cells (cell survival rate)
Method: The invention chooses the macrophage RAW 267.4 of mice for the discussion about the production of NO and prostaglandin-E2 (PGE2). For the culture of RAW 267.4 cell, firstly inoculate RAW 267.4 macrophages growing in the culture plate (75 cm^2) in 96-well plate in the density of 2×10^5 cells/well and then culture them in the incubator (37° C., 5% CO2). DMEM culture medium is selected according to the recommendation of ATCC (American TypeCulture Collection), with 10% fetal bovine serum (FBS), penicillin (100 units/ml) and streptomycin ([…]) added. In addition, the familiar MTT is utilized to test the toxicity of Antrocamphin A to cells. Said MTT is a method for detecting cell survival rate or cell proliferation in biology on principle that succinate dehydrogenase in the mitochondria of live cell metabolizes tetrazolium of MTT to be blue products. After DMSO is added to resolve the blue metabolized products accumulated in cells, the amount of blue metabolized products is measured by spectrometer to indirectly calculate the number of live cells.

mRNA of iNOS = assay: iNOS mRNA expression in LPS-treated RAW 267.4, RT-PCR; conditions: RAW 267.4, LPS; dose-dependent, higher dose; FIG. 4A
Method: (§2) Trizol reagent (Invitrogen Life Technologies, Carlsbad, Calif., USA) is used to extract the total RNA of macrophages. mRNA of iNOS, COX-2 and G3PDH is reversely transcribed to be cDNA by the RT-PCR, and then the expression of iNOS, COX-2 and G3PDH are quantified with the real time-PCR (Applied Biosystems).
(§3) Said real time-PCR detects the PCR products by DNA binding SYBR Green. The thermal cycles are: 95° C., 5 min, 1 min for 40 cycles at 95° C., 45 s for 55° C., and 30 s for 72° C. The sequence of primers is: iNOS forward 5′-TCC TAC ACC ACA CCA AAC-3′; iNOS reverse 5′-CTC CAA TCT CTG CCT ATC C-3′; COX-2 forward 5′-CCT CTG CGA TGC TCT TCC-3′, COX-2 reverse 5′-TCACACTTATACTGGTCAAATCC-3′, G3PDH forward 5′-TCA ACG GCA CAG TCA AGG-3′; G3PDH reverse 5′-ACT CCA CGA CAT ACT CAG C-3′. G3PDH are housekeeping genes which are genes with stable and large number of expression in cells and are used to standardize the expression of iNOS and COX-2 in the experiment.
(§4) In addition, total RNA and total protein are extracted from each group of macrophages. According to the paragraphs of RT-PCR and western blot analysis in Experiment I, the expression of iNOS and COX-2 are evaluated from the perspectives of mRNA and protein.

mRNA of COX-2 = assay: COX-2 mRNA expression in LPS-treated RAW 267.4, RT-PCR; conditions: RAW 267.4, LPS; dose-dependent, higher dose; FIG. 4B
Method: as §2, §3, §4

iNOS = iNOS protein expression in LPS-treated RAW 267.4, western blot; conditions: RAW 267.4, LPS; dose-dependent, especially at […]; FIG. 5A
Method: (§5) After getting the total protein of macrophages, add the equal amount of protein in 5˜7% SDS-PAGE, resolve for 90 m at 300 mA, blotting (100V, 1 hour) proteins resolved in different sizes to polyvinylidene difluoride (PVDF, Immobilon, Millipore, Bedford, Mass.), and then put PVDF in the blocking buffer (10% w/v skim milk powder in TBST) for 1 hour.
(§6) Then, dip PVDF in the anti-iNOS solution (1:1000, Cayman Chemicals) and clean twice with 0.1% TBST buffer (TBS buffer containing 0.1% Tween 20) to clear the non-specific bonded antibody and antigen.
(§7) Next, dip PVDF in the anti-rabbit secondary antibodies solution with horseradish peroxidase, detect the fluorescence density of each group by enhanced chemiluminescene regents (ECL, Pierce), and take the expression of β-actin as the reference group.
as §4

COX-2 = COX-2 protein expression in LPS-treated RAW 267.4, western blot; conditions: RAW 267.4, LPS; dose-dependent, especially at 20 µg/ml; FIG. 5B
Method: as §5, §6, §7, §4

Row | SMILES | Production of NO (M) (macrophage RAW 267.4 [1]; RAW 267.4, 1 g/ml for 1 hour) | Production of NO (M) (macrophage RAW 267.4 [1]; RAW 267.4, 5 g/ml for 1 hour) | Production of NO (M) (macrophage RAW 267.4 [1]; RAW 267.4, 10 g/ml for 1 hour) | Production of NO (M) (macrophage RAW 267.4 [1]; RAW 267.4, 20 g/ml for 1 hour) | Production of prostaglandin-E2 (PGE2) (macrophage RAW 267.4 [2]; 1 g/ml for 1 hour) | Production of prostaglandin-E2 (PGE2) (macrophage RAW 267.4 [2]; 5 g/ml for 1 hour) | Production of prostaglandin-E2 (PGE2) (macrophage RAW 267.4 [2]; 10 g/ml for 1 hour) | Production of prostaglandin-E2 (PGE2) (macrophage RAW 267.4 [2]; 20 g/ml for 1 hour) | Cell survival rate (%) (macrophage RAW 267.4 [3]; MTT, RAW 267.4, 1 g/ml, with LPS) | Cell survival rate (%) (macrophage RAW 267.4 [3]; MTT, RAW 267.4, 5 g/ml, with LPS) | Cell survival rate (%) (macrophage RAW 267.4 [3]; MTT, RAW 267.4, 10 g/ml, with LPS) | Cell survival rate (%) (macrophage RAW 267.4 [3]; MTT, RAW 267.4, 20 g/ml, with LPS) | expression of mRNA of iNOS (mRNA of iNOS) | expression of mRNA of COX-2 (mRNA of COX-2) | expression of iNOS (protein) (iNOS) | expression of COX-2 (protein) (COX-2) | Cell survival rate (%) (macrophage RAW 267.4 [3]; mouse, 10 g/ml)
1 | C=C(C)C#Cc1c(OC)cc(OC)c(OC)c1C [antrocamphin A, Antrocamphin A] | 18 ± 0.36 | 14.68 ± 0.54 | 11.14 ± 0.18 | 7.27 ± 0.18 | 411.5 ± 20.92 | 360.9 ± 23.95 | 237.96 ± 83.85 | 24.62 ± 15.36 | 93 ± 4.13 | 92 ± 5.49 | 89 ± 3.22 | 79 ± 3.54 | effectively reduce the amount of mRNA of iNOS and COX-2 | effectively reduce the amount of mRNA of iNOS and COX-2 | effectively reduce the expression of iNOS and COX-2 | effectively reduce the expression of iNOS and COX-2 | 
2 | COc1cc(/C=C/C(=O)CC(=O)/C=C/c2ccc(O)c(OC)c2)ccc1O [curcumin, reference compound] |  |  |  |  |  |  | 6.82 ± 5.2 |  |  |  |  |  |  |  |  |  | 76 ± 4.6
